# Reference: US8088806B2 (Achillion Pharmaceuticals, Inc., priority 2005, dated 2012)
# Tested on: HCV replicon
# Assay: Replicon based assay of HCV replication inhibition (NPT ELISA)
# Format: cell-based, Hepatitis C virus
# Conditions: Hepatitis C virus, replicon based assay of HCV replication inhibition; Table II; read-out: Activity
# Summary of the method: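 Huh-7 cells carrying a bicistronic HCV replicon (neo, EMCV-IRES-driven NS3–NS5B) treated overnight after seeding with usually 6 concentrations, 10 to 0.03 micromolar, for three days at 37° C without G418. Replication read as NPT level by captured ELISA; matched-DMSO wells and interferon alpha as controls.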
row,SMILES,EC50 [nM]
1,"CCCCCOc1ccc(Nc2nc(CN3CCC(C(N)=O)CC3)cs2)cc1C(F)(F)F [compound 267, 1-((2-(4-(pentyloxy)-3-(trifluoromethyl)phenyl-amino)thiazol-4-yl)methyl)piperidine-4-carboxamide]",< 1000
2,"CCCCCOc1ccc(Nc2nc(CN3CCC[C@H]3C(=O)O)cs2)cc1C(F)(F)F [compound 268, (S)-1-((2-(4-(pentyloxy)-3-(trifluoromethyl)phenyl-amino)thiazol-4-yl)methyl)pyrrolidine-2-carboxylic acid]",< 1000
3,"CCCCCOc1ccc(Nc2nc(CN3CCC(O)CC3)cs2)cc1C(F)(F)F [compound 272, 1-((2-(4-(pentyloxy)-3-(trifluoromethyl)phenyl-amino)thiazol-4-yl)methyl)piperidin-4-ol]",< 1000
4,"CCCCCOc1ccc(Nc2nc(CN3CCC(CO)CC3)cs2)cc1C(F)(F)F [compound 273, (1-((2-(4-(pentyloxy)-3-(trifluoromethyl)phenyl-amino)thiazol-4-yl)methyl)piperidin-4-yl)methanol]",< 1000
5,"CCCCCOc1ccc(Nc2nc(CN3CCC(C(=O)O)CC3)cs2)cc1C(F)(F)F [compound 274, 1-((2-(4-(pentyloxy)-3-(trifluoromethyl)phenyl-amino)thiazol-4-yl)methyl)piperidine-4-carboxylic acid]",< 1000
6,"CCCCCOc1ccc(Nc2nc(CN3CCCC(C(=O)O)C3)cs2)cc1C(F)(F)F (stereo not shown) [compound 275, 1-((2-(4-(pentyloxy)-3-(trifluoromethyl)phenyl-amino)thiazol-4-yl)methyl)piperidin-3-carboxylic acid]",< 1000
7,"CCCCCOc1ccc(Nc2nc(CN3CCCC(C)C3)cs2)cc1C(F)(F)F (stereo not shown) [compound 276, 4-((3-methylpiperidin-1-yl)methyl)-N-(4-(pentyloxy)-3-(trifluoromethyl)phenyl)thia-zol-2-amine]",< 1000
8,"CCCCCOc1ccc(Nc2nc(CN3C(C)CCCC3C)cs2)cc1C(F)(F)F (stereo not shown) [compound 277, 4-((2,6-dimethylpiperidin-1-yl)methyl)-N-(4-(pentyloxy)-3-(trifluoromthyl)phenyl)thia-zol-2-amine]",< 1000
9,"CCCCCOc1ccc(Nc2nc(CN3CCC[C@@H]3C(=O)O)cs2)cc1C(F)(F)F [compound 278, (R)-1-((2-(4-(pentyloxy)-3-(trifluoromethyl)phenyl-amino)thiazol-4-yl)methyl)pyrrolidine-2-carboxylic acid]",< 1000
10,"CCCCCOc1ccc(Nc2nc(CN3CCN(C(=O)OC(C)(C)C)CC3)cs2)cc1F [compound 279, tert-butyl 4-((2-(3-fluoro-4-(pentyloxy)phenylamino)thia-zol-4-yl)methyl)piperiazine-1-carboxylate]",1000 to 10000
11,"CCCCCOc1ccc(Nc2nc(CN3CCC(N(C)C(=O)OC(C)(C)C)C3)cs2)cc1F (stereo not shown) [compound 280, tert-butyl 1-((2-(3-fluoro-4-(pentyloxy)phenylamino)thia-zol-4-yl)m,ethyl)pyrrolidin-3-yl(methyl)carbamate]",1000 to 10000
12,"CCCCCOc1ccc(Nc2nc(CN3CCN(Cc4ccccn4)CC3)cs2)cc1F [compound 281, N-(3-fluoro-4-(pentyloxy)phenyl)-4-((4-(pyridin-2-ylmethyl)piperiazin-1-yl)methyl)thiazol-2-amine]",< 1000
13,"CCCCCOc1ccc(Nc2nc(CN3CCN(C4CCCCCC4)CC3)cs2)cc1F [compound 282, 4-((4-cycloheptylpiperazin-1-yl)methyl)-N-(3-fluoro-4-(pentyloxy)phenyl)thiazol-2-amine]",< 1000
14,"CCCCCOc1ccc(Nc2nc(CN3CCN(CCN(C)C)CC3)cs2)cc1F [compound 283, 4-((4-(2-(dimeethylamino)ethyl)piper-azin-1-yl)methyl)-N-(3-fluoro-4-(pentyloxy)phenyl)thiazol-2-amine]",1000 to 10000
15,"CCCCCOc1ccc(Nc2nc(CN3CCCC(C(=O)N(CC)CC)C3)cs2)cc1F (stereo not shown) [compound 284, N,N-diethyl-1-((2-(3-fluoro-4-(pentyloxy)phenylamino)thia-zol-4-yl)methyl)piperidine-3-carboxamide]",1000 to 10000
16,"CCCCCOc1ccc(Nc2nc(CN3CCOCC3)cs2)cc1F [compound 285, N-(3-fluoro-4-(pentyloxy)phenyl)-4-(morpholinomethyl)thiazol-2-amine]",1000 to 10000
17,"CCCCCOc1ccc(Nc2nc(CN3CCCCC3CO)cs2)cc1F (stereo not shown) [compound 286, (1-((2-(3-fluoro-4-(pentyloxy)phenylamino)thia-zol-4-yl)methyl)piperidin-2-yl)methanol]",1000 to 10000
18,"CCCCCOc1ccc(Nc2nc(CN3CCC(N(C)C)C3)cs2)cc1F (stereo not shown) [compound 287, 4-((3-(dimethylamino)pyrrolidin-1-yl)methyl)-N-(3-fluoro-4-(pentyloxy)pheenyl)thiazol-2-amine]",< 1000
19,"CCCCCOc1ccc(Nc2nc(CN3CCC(O)C3)cs2)cc1F (stereo not shown) [compound 288, 1-((2-(3-fluoro-4-(pentyloxy)phenylamino)thia-zzol-4-yl)methyl)pyrrolidin-3-ol]",< 1000
20,"CCCCCOc1ccc(Nc2nc(CN3CCC(C(=O)OCC)CC3)cs2)cc1F [compound 289, ethyl 1-((2-(3-fluoro-4-(pentyloxy)phenylamino)thia-zol-4-yl)methyl)piperidine-4-carboxylate]",1000 to 10000
21,"CCCCCOc1ccc(Nc2nc(CN3C[C@H](O)CC3C(=O)OC)cs2)cc1F (stereo partly drawn) [compound 290, (4R)-methyl 1-((2-(3-fluoro-4-(pentyloxy)phenylamino)thia-zol-4-yl)methyl)-4-hydroxypyrrolidine-2-carboxylate]",< 1000
22,"CCCCCOc1ccc(Nc2nc(CN3CCC(O)CC3)cs2)cc1F [compound 291, 1-((2-(3-fluoro-4-(pentyloxy)phenylamino)thia-zol-4-yl)methyl)piperidin-4-ol]",1000 to 10000
23,"CCCCCOc1ccc(Nc2nc(CN3CCC(CO)CC3)cs2)cc1F [compound 292, (1-((2-(3-fluoro-4-(pentyloxy)phenylamino)thia-zol-4-yl)methyl)piperidin-4-yl)methanol]",1000 to 10000
24,"CCCCCOc1ccc(Nc2nc(CN3CCCC(C(=O)O)C3)cs2)cc1F (stereo not shown) [compound 293, 1-((2-(3-fluoro-4-(pentyloxy)phenylamino)thia-zol-4-yl)methyl)piperidine-3-carboxylic acid]",1000 to 10000
25,"CCCCCOc1ccc(Nc2nc(CN3CCC[C@@H]3C(=O)O)cs2)cc1F [compound 294, (R)-1-((2-(3-fluoro-4-(pentyloxy)phenylamino)thia-zol-4-yl)methyl)pyrrolidine-2-carboxylic acid]",1000 to 10000
26,"CCCCCOc1ccc(Nc2nc(CN3CCC(C)CC3)cs2)cc1F [compound 295, N-(3-fluoro-4-(pentyloxy)pheenyl)-4-((4-methylpiperidin-1-yl)methyl)thiazol-2-amine]",1000 to 10000
27,"CCCCCOc1ccc(Nc2nc(CN3CCCC(C)C3)cs2)cc1F (stereo not shown) [compound 296, N-(3-fluoro-4-(pentyloxy)phenyl)-4-((3-methylpiperidin-1-yl)methyl)thiazol-2-amine]",1000 to 10000
28,"CCCCCOc1ccc(Nc2nc(CN3C(C)CCCC3C)cs2)cc1F (stereo not shown) [compound 297, 4-((2,6-dimethylpiperidin-1-yl)methyl)-N-(3-fluoro-4-(pentyloxy)phenyl)thiazol-2-amine]",1000 to 10000
